Data: patent US7429607B2, “5-HT2B receptor antagonists” (Asterand UK Limited, priority 2002, dated 2008)

Tests used:
[1] = target: T1, cloned human 5-HT2C receptor (Homo sapiens, UniProt P28335); experiment: Human 5-HT2C receptor binding assay ([3H]mesulergine, CHO-K1 membranes); details: displacement of [3H]mesulergine (1 nM), read-out: 5-HT2C pKi (converted)
T1 construct: purchased Euroscreen; host or cells: CHO-K1 cells
T1 sequence (P28335 33-458): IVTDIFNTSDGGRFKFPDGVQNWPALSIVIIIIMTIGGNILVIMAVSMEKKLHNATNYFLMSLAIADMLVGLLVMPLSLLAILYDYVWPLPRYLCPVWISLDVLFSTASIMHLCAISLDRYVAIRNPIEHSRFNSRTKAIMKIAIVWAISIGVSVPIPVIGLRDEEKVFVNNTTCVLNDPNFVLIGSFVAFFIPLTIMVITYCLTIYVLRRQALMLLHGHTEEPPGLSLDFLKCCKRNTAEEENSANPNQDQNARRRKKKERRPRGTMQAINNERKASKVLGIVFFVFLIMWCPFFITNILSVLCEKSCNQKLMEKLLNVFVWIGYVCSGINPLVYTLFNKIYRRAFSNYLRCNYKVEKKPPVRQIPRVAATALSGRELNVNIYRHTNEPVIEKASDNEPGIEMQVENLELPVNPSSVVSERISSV
Experimental: The binding affinity of ligands for human 5-HT2A and 5-HT2C receptors was determined using the following assay.
Membrane preparations from CHO-K1 cells expressing the cloned human 5-HT2C receptor were obtained (Euroscreen). The membranes were thawed rapidly and diluted in assay buffer containing Tris-HCl (50 mM, pH 7.7), ascorbic acid (0.1%) and pargyline (10 μM). The membranes were resuspended by homogenisation, prior to adding 6 μg of membranes to assay wells containing [^3H] mesulergine (1 nM), assay buffer (50 mM Tris at pH 7.7 and 0.1% ascorbic acid) containing pargyline (10 μM), and test compounds (1×10^−10 to 1×10^−4M). Non specific binding was determined in the presence of 100 μM mianserin. After 30 minutes incubation at 37° C., the assay mixture was filtered through a combination of GF-C and GF-B filters, pre-soaked in 1% bovine serum albumin, using a Brandel cell harvester, and were washed three times using ice cold Tris-HCl buffer (50 mM). Radioactivity retained on the filters was determined by liquid scintillation counting. For each test compound, the concentration that inhibited binding of [3H]mesulergine by 50% was determined using curve fitting software (Prism). Kd values (concentration of mesulergine required to occupy 50% of the receptor binding sites at equlibrium) determined from saturation binding studies were then used to calculate inhibition dissociation constants (Ki) using the following equation: […]

[2] = target: T2, 5-HT2B receptor in human tissues (Homo sapiens, UniProt P41595); experiment: Human 5-HT2B receptor tissue based functional assay (human colon longitudinal smooth muscle); type: cell-based; details: antagonism of 5-HT effect on electrically stimulated human colon longitudinal muscle; pKB=log(CR-1)-log(antagonist concentration)
T2 construct: from tissue; host or cells: human colon longitudinal smooth muscle strips
Experimental: An in vitro functional assay, using human colon smooth muscle, was carried out to determine the affinity of the test compounds at the 5-HT2B receptor in human tissues. Sections of human colon were cut open along their longitudinal axis. The sections were pinned out flat and the mucosa carefully removed using sharp dissecting scissors. Once the mucosa was removed, the section was turned over to reveal the three taenia coli (taenia mesencolica, taenia omentalis and taenia libera) and the muscle bands that lie between them. Longitudinal muscle strips (2 mm wide by 20 mm long) were then cut from the tissue between the taenia coli and suspended between stainless steel hooks in organ chambers containing oxygenated (95% O2/5% CO2) Krebs solution at 37° C. The composition of the Krebs solution was as follows: NaCl (118.2 mM), KCl (4.69 mM), MgSO4.7H2O (1.18 mM), KH2PO4 (1.19 mM), glucose (11.1 mM), NaHCO3 (25.0 mM), CaCl2.6H2O (2.5 mM). Tissues were placed under a load equivalent to 10 mN and left to equilibrate for a period of at least 60 minutes. Responses were recorded using isometric transducers coupled to an Apple Macintosh computer via a MacLab interface. After 60 minutes, the longitudinal muscle sections of the human colon were stimulated electrically (sub-maximal voltage and frequency with 60s between successive stimulations) using parallel platinum wire electrodes and a Multistim D330 pulse stimulator. Upon electrical stimulation, the strips of human colon longitudinal smooth muscle responded with a rapid contraction. Once the response to electrical stimulation had stabilised (stimulated responses differed by no more than 10%), the strips were exposed to increasing concentrations of 5-HT (1×10^−9 to 1×10^−5M), in the absence or presence of test compounds (1×10^−7 to 1×10^−5M, incubated for 30 minutes). To determine the affinity of the compounds, the concentration of 5-HT required to produce half-maximal effects (EC50) was calculated in the absence and presence of test compound. The antagonist affinity was calculated by dividing the EC50 for 5-HT in the presence of antagonist by the EC50 for 5-HT in the absence of antagonist to yield a concentration ratio (CR). The results are shown in table 2 below as a pKB value, which is calculated as follows: pKB=log(CR−1)−log(antagonist concentration). This approach follows that set out in Kenakin, T. P. Pharmacologic analysis of drug-receptor interaction. Raven Press, New York, 2nd Edition.

[3] = target: T3, human cloned 5-HT2B receptors (Homo sapiens, UniProt P41595); experiment: Human cloned 5-HT2B cell-based functional assay (Fluo-4, CHO.K1 cells); details: inhibition of 5-HT response, CHO.K1 cells expressing cloned 5-HT2B, Fluo-4 AM
T3 construct: expressed in transfected cells; host or cells: CHO-K1 cells
Experimental: The following describes an in vitro functional assay using human cloned 5-HT2B receptors to determine the ability of compounds to block the receptor. CHO.K1 cells expressing cloned 5-HT2B receptor were maintained In Ultra-CHO medium containing 400 μg/ml of G418, 100 U/ml penicillin, 100 μg/ml streptomycin, 2.5 μg/ml fungizone, in 95/5% O2/CO2 at 37° C. Ultra-CHO medium additionally supplemented with 1% foetal bovine serum was used when seeding the cells and removed after 5 hours. Cells were plated in Costar 96 well white, clear-bottomed plate at a density of 50,000 cells per well and incubated for at least 24 hours in 95/5% O2/CO2 at 37° C. before running the assay. Media was removed from the wells and 200 μl of 4 μM Fluo-4 AM added, this was incubated in a Wallace Victor 2V workstation at 37° C. for 30 minutes. The Fluo-4 AM was then removed from the wells, which were then washed twice with 200 μl of buffer (HBSS without calcium/magnesium/phenol red, 20 mM HEPES, 1 mM Ca^2+, 1 mM Mg^2+, 2.5 mM probenecid, pH to 7.4), 180 μl of buffer or test compound was added to the well and incubated for 30 minutes. The Victor 2V injectors were used to inject 20 μl of 5-HT after obtaining 10 0.1-second baseline readings at 535 nm, followed by 150 readings. All test compounds were aliquoted in 100% DMSO at 10 mM and diluted to 1 mM in 50% DMSO, subsequent dilutions were made using buffer. Buffer was also used to dilute the 5-HT. Data were analysed using Microsoft Excel and GraphPad Prism, with the latter used to produce sigmoidal dose-response curves for each compound. The compound concentration that inhibited the 5-HT response by 50% was taken (IC50-M), and the results are shown in Table 3, as pIC50, being the negative log (to the base 10) of the measured IC50 values.

T2 sequence (P41595 whole entry): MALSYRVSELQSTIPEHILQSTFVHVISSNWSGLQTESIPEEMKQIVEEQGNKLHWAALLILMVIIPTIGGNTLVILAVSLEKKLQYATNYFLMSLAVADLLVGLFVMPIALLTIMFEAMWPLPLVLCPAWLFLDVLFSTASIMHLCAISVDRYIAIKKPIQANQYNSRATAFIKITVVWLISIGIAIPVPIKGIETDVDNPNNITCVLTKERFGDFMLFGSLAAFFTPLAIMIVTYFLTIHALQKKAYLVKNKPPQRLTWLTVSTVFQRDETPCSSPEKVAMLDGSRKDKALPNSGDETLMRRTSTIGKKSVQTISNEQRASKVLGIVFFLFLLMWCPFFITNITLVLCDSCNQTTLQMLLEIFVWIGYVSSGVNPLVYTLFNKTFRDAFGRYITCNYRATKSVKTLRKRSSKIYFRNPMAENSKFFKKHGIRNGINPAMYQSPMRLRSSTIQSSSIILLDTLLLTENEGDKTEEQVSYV
T3 sequence (P41595 whole entry): as above

| SMILES | Ki [1] | Kb [2] | IC50 [3] |
| --- | --- | --- | --- |
| Cc1ccc2ccccc2c1-c1coc(N)n1 [Compound 6, 2-amino-4-(2′-methylnaphth-1-yl)oxazole] | > 1000 nM | < 100 nM | < 100 nM |
| CC(C)c1nc(N)oc1-c1cccc2ccccc12 [Compound 7, 2-amino-4-isopropyl-5-(naphth-1-yl)oxazole] | > 1000 nM | < 10 nM | < 10 nM |
| Nc1nc(-c2cccc3ccccc23)co1 [Compound 1, 2-amino-4-(naphth-1-yl)oxazole] | > 1000 nM | < 100 nM | < 100 nM |
| CC(C)c1nc(N)oc1-c1ccc(F)c2ccccc12 [Compound 31, 2-amino-5-(4′-fluoronaphth-1-yl)-4-isopropyloxazole] | > 1000 nM | < 100 nM | < 10 nM |
| COc1ccc2ccccc2c1-c1coc(N)n1 [Compound 17, 4-(2-methoxy-naphthalen-1-yl)-oxazol-2-ylamine] | > 100 nM | < 10 nM | < 10 nM |
